# Publication PMC10186300 (Scientific Reports, 2023)
# “And” between values parts separate entries of the source, which are not always exact repeats. Equal values may be shown once. Residues, ends and D or L forms follow the SMILES beside them. *: point of attachment. Dansyl = CN(C)c1cccc2c(S(=O)(=O)*)cccc12
# What was measured:
# [1] = molecular target: T1, PDZ2 domain of ZO1 (Homo sapiens, UniProt Q07157, F207W); experiment: biochemical; type: binding
# [2] = molecular target: T1, PDZ2 domain of ZO1; experiment: biochemical; type: binding; settings: pH 7
# T1 sequence (Q07157 186-264 F207W limits assumed): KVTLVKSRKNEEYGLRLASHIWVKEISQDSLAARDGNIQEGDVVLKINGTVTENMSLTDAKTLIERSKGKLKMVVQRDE
Compound,Kd [1],koff [2],change in fluorescence upon binding (negative control) ([1]; pH 7)
CC(C)C[C@H](NC(=O)[C@@H]1CCCN1C(=O)[C@@H]1CCCN1C(=O)[C@H](CCCCN)NC(=O)[C@H](CO)NS(=O)(=O)c1cccc2c(N(C)C)cccc12)C(=O)N1CCC[C@H]1C(=O)N1CCC[C@H]1C(=O)N[C@@H](CC(=O)O)C(=O)N[C@@H](CCC(=O)O)C(=O)N[C@@H](Cc1c[nH]c2ccccc12)C(=O)N[C@H](C(=O)O)C(C)C [MERS-CoV E peptide] (Dansyl-SKPPLPPDEWV-OH),14 ± 1 µM,154 ± 3 s⁻¹,
CC(C)C[C@H](NC(=O)[C@H](CC(=O)O)NC(=O)[C@@H]1CCCN1C(=O)[C@@H](NC(=O)CNC(=O)[C@H](CCC(=O)O)NC(=O)[C@H](CO)NC(=O)[C@H](CO)NC(=O)[C@H](CC(N)=O)NS(=O)(=O)c1cccc2c(N(C)C)cccc12)C(C)C)C(=O)N[C@@H](CC(C)C)C(=O)N[C@H](C(=O)O)C(C)C [SARS-CoV E peptide] (Dansyl-NSSEGVPDLLV-OH),4.7 µM and 5 µM and 8.6 µM,9 s⁻¹ and 7.0 ± 0.1 s⁻¹ and 6.9 ± 0.1 s⁻¹ and 6.2 ± 0.1 s⁻¹,
CC(C)C[C@H](NC(=O)[C@H](CC(=O)O)NC(=O)[C@@H]1CCCN1C(=O)[C@@H](NC(=O)[C@H](CCCNC(=N)N)NC(=O)[C@H](CO)NC(=O)[C@H](CO)NC(=O)[C@H](CC(N)=O)NS(=O)(=O)c1cccc2c(N(C)C)cccc12)C(C)C)C(=O)N[C@@H](CC(C)C)C(=O)N[C@H](C(=O)O)C(C)C [SARS-CoV-2 E peptide] (Dansyl-NSSRVPDLLV-OH),15.8 µM and 17.4 µM and 15.2 µM,9.5 s⁻¹ and 8.7 ± 0.2 s⁻¹ and 6.8 ± 0.1 s⁻¹ and 9.1 ± 0.2 s⁻¹,
ENVGLMQQQK [reference compound],,,no change in fluorescence upon binding
